Laboratory results: patent US20110182982A1, “LIPOSOME TREATMENT OF VIRAL INFECTIONS” (University of Oxford, priority 2006, published 2011)

Key:
[1] = pH sensitivity of DCPP liposomes (calcein leakage); format: physicochemical; conditions: 1 mM encapsulated, pH 5.0-7.4, vs calcein only liposomes
Method: DCPP liposomes encapsulating 1-mM DNJ, NB-DNJ, or NN-DNJ in 80-mM calcein buffer were compared with empty (calcein only) liposomes to determine the effects of the alkyl chain of NB-DNJ and NN-DNJ on the pH-sensitivity. 10 μl of calcein-loaded DCPP liposomes (final phospholipid concentration, 5 μM) was added to 2 ml of MES-buffered saline at various pH values ranging from 5.0-7.4, and left to incubate with shaking 15 min at 37° C. Following incubation, calcein fluorescence was measured before and after the addition of Triton to a final concentration of 0.1%. Fluorescence intensities obtained at acidic pH values were corrected for the slight effect of pH on calcein fluorescence. The percentage of calcein release at each pH was calculated using the formula: % leakage=((in−I0)/(I100−I0))×100, where I0 is the fluorescence at neutral pH, In is the corrected intensity at acidic pH before the addition of Triton, and I100 is the total dequenched calcein at neutral pH.

[2] = tested on: CHO cells; test: Liposome uptake (Rh-PE) and intracellular calcein dequenching; format: cell-based, Chinese hamster
Method: The effects of different DNJ compounds on the cellular uptake and intracellular release, when encapsulated inside DCPP liposomes, was determined by diluting compounds in 80-mM calcein and incorporating Rh-PE in liposome membranes as previously described, with the final liposome composition being DOPE:CHEMS:PEG-PE:Rh-PE (DCPP-Rh, 6:4:0.3:0.1) Liposomes encapsulating calcein alone, 10-μM DNJ, 1-mM DNJ, 10-μM NB-DNJ, 1-mM NB-DNJ, 10-μM NN-DNJ, or 1-mM NN-DNJ, were incubated with CHO cells for 45 min before liposomes were removed and cells were washed twice in 1×PBS. Cells were then analyzed in a fluorometer to measure calcein dequenching (λex=490 and λem=520 nm) and rhodamine fluorescence (λex=584 and λem=612 nm). Data represent the mean±S.D. obtained from triplicates of four independent experiments, where mean rhodamine fluorescence values reflect the binding and uptake of liposomes and the mean calcein fluorescence reflects the intracellular dequenching of the dye (i.e. dye released from liposomes into intracellular compartments). Results are expressed as the percent fluorescence measured following incubation with DNJ-containing liposomes as compared to the calcein/PBS-only liposome control (=100% on the x axis).
The calculated ratio of calcein to rhodamine fluorescence is taken as a measure of the amount of aqueous marker released per cell-associated liposome, and represents the efficiency of intracellular delivery.

[3] = tested on: ER glucosidases I and II; test: Free oligosaccharide (FOS) analysis as marker of glucosidase inhibition; format: cell-based, Chinese hamster
Source text: Free oligosaccharides (FOS) produced in the presence of free or DCPP liposomes encapsulating NB-DNJ are characterized and used as a cellular marker for glucosidase inhibition to measure the enhancement of drug activity due to intracellular delivery. […] In this experiment, the distribution of glucosylated FOS is used as a measure of glucosidase inhibition by NB-DNJ, where Glc1Mann-FOS and Glc2Mann-FOS species are a result of glucosidase II inhibition, and Glc3Mann-FOS a result of glucosidase I inhibition.
CHO cells were incubated in the presence of free NB-DNJ at the antiviral concentration of 0.5 mM, or with 100 μM of DCPP liposomes encapsulating NB-DNJ at final concentrations ranging 0-75 nM. Cells were left to incubate for 5 days and isolation of FOS was performed using cell homogenates standardized to 500 μg of total protein as described by Mellor et al (2004). Biochem J. 2004 Aug. 1; 381 (Pt 3): 861-866. Detection of FOS was performed by normal-phase HPLC following labeling of oligosaccharides by 2-aminobenzamide. The compositions of FOS were further characterized and determined by digestions with glycosidases including endoglycosidase H, jack bean α-mannosidase, and α-glucosidases I and II. The percentage of non-glucosylated and glucosylated oligomannose FOS (represented by Mann-FOS, Glc1Mann-FOS, Glc2Mann-FOS, and Glc3Mann-FOS) was calculated for each sample, and results are represented in Table 2. Results represent the mean±S.D. of four separate experiments.

CCCCN1C[C@H](O)[C@@H](O)[C@H](O)[C@H]1CO [NB-DNJ, N-butyl-1,5-dideoxy-1,5-imino-D-glucitol]
pH sensitivity / stability of DCPP liposomes [1]: significant decrease in pH sensitivity
Efficiency (calcein/rhodamine, AU) ([2]; 10 μM encapsulated in DCPP liposomes): 21.7 ± 1.5 AU
increase of efficiency of intracellular delivery ([2]; 10 μM in DCPP liposomes): approximately 2 fold
Efficiency (calcein/rhodamine, AU) ([2]; 1 mM encapsulated in DCPP liposomes): 28.4 ± 2.4 AU
increase of efficiency of intracellular delivery ([2]; 1 mM in DCPP liposomes): ~3 fold
increase in dequenched calcein ([2]; 1-mM formulation in DCPP-Rh liposomes): ~2.3 fold
increase in dequenched calcein ([2]; 10-μM formulation in DCPP-Rh liposomes): ~1.8 fold
Distribution of total FOS Glc0Mann ([3]; 0.75 pM in liposomes): 70.7 ± 5.4%
Distribution of total FOS Glc1Mann ([3]; 0.75 pM in liposomes): 18.7 ± 3.7%
Distribution of total FOS Glc2Mann ([3]; 0.75 pM in liposomes): 7.7 ± 1.1%
Distribution of total FOS Glc3Mann ([3]; 0.75 pM in liposomes): 2.9 ± 0.9%
Distribution of total FOS Glc0Mann ([3]; 7.5 pM in liposomes): 70.4 ± 4.2%
Distribution of total FOS Glc1Mann ([3]; 7.5 pM in liposomes): 17.7 ± 1.3%
Distribution of total FOS Glc2Mann ([3]; 7.5 pM in liposomes): 8.3 ± 2.1%
Distribution of total FOS Glc3Mann ([3]; 7.5 pM in liposomes): 3.6 ± 1.3%
Distribution of total FOS Glc0Mann ([3]; 75 pM in liposomes): 51.7 ± 4.7%
Distribution of total FOS Glc1Mann ([3]; 75 pM in liposomes): 38.6 ± 4.1%
Distribution of total FOS Glc2Mann ([3]; 75 pM in liposomes): 5.3 ± 1.8%
Distribution of total FOS Glc3Mann ([3]; 75 pM in liposomes): 4.4 ± 2.8%
Distribution of total FOS Glc0Mann ([3]; 0.75 nM in liposomes): 20.4 ± 2.7%
Distribution of total FOS Glc1Mann ([3]; 0.75 nM in liposomes): 66.9 ± 5.1%
Distribution of total FOS Glc2Mann ([3]; 0.75 nM in liposomes): 7.4 ± 3.3%
Distribution of total FOS Glc3Mann ([3]; 0.75 nM in liposomes): 5.3 ± 2.9%
Distribution of total FOS Glc0Mann ([3]; 7.5 nM in liposomes): 12.7 ± 2.6%
Distribution of total FOS Glc1Mann ([3]; 7.5 nM in liposomes): 50.0 ± 4.8%
Distribution of total FOS Glc2Mann ([3]; 7.5 nM in liposomes): 28.6 ± 2.7%
Distribution of total FOS Glc3Mann ([3]; 7.5 nM in liposomes): 8.7 ± 1.7%
Distribution of total FOS Glc0Mann ([3]; 75 nM in liposomes): 13.2 ± 4.1%
Distribution of total FOS Glc1Mann ([3]; 75 nM in liposomes): 7.9 ± 2.8%
Distribution of total FOS Glc2Mann ([3]; 75 nM in liposomes): 26.6 ± 4.5%
Distribution of total FOS Glc3Mann ([3]; 75 nM in liposomes): 52.3 ± 6.2%
Distribution of total FOS Glc0Mann ([3]; 0.5 mM free): 11.9 ± 1.9%
Distribution of total FOS Glc1Mann ([3]; 0.5 mM free): 9.5 ± 0.9%
Distribution of total FOS Glc2Mann ([3]; 0.5 mM free): 31.7 ± 4.5%
Distribution of total FOS Glc3Mann ([3]; 0.5 mM free): 46.9 ± 4.8%
